pEC50: −log10 of the molar value. Where “and” joins values, the source holds several entries; their conditions need not be identical. Equal entries are not always repeated. Square brackets hold non-standard residues; d marks the D form. Peptide text beside a SMILES is read from it. Sar = CNCC(=O)O
Molecular target: T1, Solute carrier family 15 member 2 (Homo sapiens, UniProt Q16348)
T1 sequence (Q16348 whole entry): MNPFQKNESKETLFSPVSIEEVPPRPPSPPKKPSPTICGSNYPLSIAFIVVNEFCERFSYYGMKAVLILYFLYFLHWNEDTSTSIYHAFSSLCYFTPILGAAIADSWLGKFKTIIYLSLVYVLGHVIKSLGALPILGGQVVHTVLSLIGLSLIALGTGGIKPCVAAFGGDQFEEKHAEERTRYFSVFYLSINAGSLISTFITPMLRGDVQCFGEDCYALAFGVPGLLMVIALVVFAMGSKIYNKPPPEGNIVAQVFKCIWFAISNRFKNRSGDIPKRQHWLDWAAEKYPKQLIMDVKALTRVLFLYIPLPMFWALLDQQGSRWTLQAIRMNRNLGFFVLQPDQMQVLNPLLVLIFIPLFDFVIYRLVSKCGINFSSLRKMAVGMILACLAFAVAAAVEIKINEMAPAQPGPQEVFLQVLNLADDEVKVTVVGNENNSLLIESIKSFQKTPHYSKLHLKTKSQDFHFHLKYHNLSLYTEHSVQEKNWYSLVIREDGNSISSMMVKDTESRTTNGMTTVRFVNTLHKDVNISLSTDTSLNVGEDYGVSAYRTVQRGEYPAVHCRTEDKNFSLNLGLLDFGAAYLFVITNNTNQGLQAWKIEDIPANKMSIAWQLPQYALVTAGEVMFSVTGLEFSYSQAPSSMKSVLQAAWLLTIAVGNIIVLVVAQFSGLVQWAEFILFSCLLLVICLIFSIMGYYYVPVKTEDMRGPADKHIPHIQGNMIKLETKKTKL
Assay: Substrate uptake by the Peptide Transporter 2 (PEPT2, SLC15A2) as assessed by the fluorescent FLIPR membrane potential dye in HEK-293 JumpIN-SLC15A2 cells (PubChem AID: 1794819)
Type: functional, cell-based, HEK293

Row | SMILES | pEC50
1 | NCCC(=O)N[C@@H](Cc1cnc[nH]1)C(=O)O [CARNOSINE] | 4.55
2 | CN(CC(=O)O)C(=O)CN [GLYCYLSARCOSINE] (H-Gly-[Sar]-OH) | 3.91 and 4.41

From ChEMBL document CHEMBL5209584, “Membrane potential based assay for SLC15A2 using HEK-293 SLC15A2 OE cells” (2022)
